Source: ChEMBL document CHEMBL2413072, “Synthesis and in vitro anticancer studies of novel C-2 arylidene congeners of lantadenes” (2013)

What was measured:
Format in all cases: functional
[1] = system: MCF7; assay: Growth inhibition of human MCF7 cells assessed as cell growth at 10^-7 M by sulforhodamine B assay; settings: read-out: Activity
[2] = system: SNB-19; assay: Growth inhibition of human SNB19 cells by sulforhodamine B assay
[3] = system: SF-539; assay: Growth inhibition of human SF539 cells by sulforhodamine B assay
[4] = system: ACHN; assay: Growth inhibition of human ACHN cells assessed as cell growth at 10^-6 M by sulforhodamine B assay; settings: read-out: Activity
[5] = system: NCI-H23; assay: Growth inhibition of human NCI-H23 cells assessed as cell growth at 10^-7 M by sulforhodamine B assay; settings: read-out: Activity
[6] = system: A549; assay: Growth inhibition of human A549/ATCC cells assessed as cell growth at 10^-4 M by sulforhodamine B assay; settings: read-out: Activity
[7] = system: SK-OV-3; assay: Growth inhibition of human SKOV3 cells assessed as cell growth at 10^-4 M by sulforhodamine B assay; settings: read-out: Activity
[8] = system: COLO 205; assay: Growth inhibition of human COLO205 cells assessed as cell growth at 10^-7 M by sulforhodamine B assay; settings: read-out: Activity
[9] = system: SNB-75; assay: Growth inhibition of human SNB75 cells assessed as cell growth at 10^-7 M by sulforhodamine B assay; settings: read-out: Activity
[10] = system: U-251; assay: Growth inhibition of human U251 cells assessed as cell growth at 10^-8 M by sulforhodamine B assay; settings: read-out: Activity
[11] = system: Malme-3M; assay: Growth inhibition of human MALME-3M cells assessed as cell growth at 10^-6 M by sulforhodamine B assay; settings: read-out: Activity
[12] = system: HL-60(TB); assay: Growth inhibition of human HL-60(TB) cells assessed as cell growth at 10^-7 M by sulforhodamine B assay; settings: read-out: Activity
[13] = Growth inhibition of human NCI-ADR-RES cells assessed as cell growth at 10^-6 M by sulforhodamine B assay; settings: read-out: Activity
[14] = system: Malme-3M; assay: Growth inhibition of human MALME-3M cells by sulforhodamine B assay
[15] = system: HOP-62; assay: Growth inhibition of human HOP62 cells assessed as cell growth at 10^-7 M by sulforhodamine B assay; settings: read-out: Activity
[16] = system: UACC-62; assay: Growth inhibition of human UACC62 cells assessed as cell growth at 10^-6 M by sulforhodamine B assay; settings: read-out: Activity
[17] = system: COLO 205; assay: Growth inhibition of human COLO205 cells assessed as cell growth at 10^-6 M by sulforhodamine B assay; settings: read-out: Activity
[18] = system: NCI-H522; assay: Growth inhibition of human NCI-H522 cells assessed as cell growth at 10^-6 M by sulforhodamine B assay; settings: read-out: Activity
[19] = system: CCRF-CEM; assay: Growth inhibition of human CCRF-CEM cells assessed as cell growth at 10^-8 M by sulforhodamine B assay; settings: read-out: Activity
[20] = system: HCT-15; assay: Growth inhibition of human HCT15 cells assessed as cell growth at 10^-8 M by sulforhodamine B assay; settings: read-out: Activity
[21] = system: IGROV-1; assay: Growth inhibition of human IGROV1 cells assessed as cell growth at 10^-4 M by sulforhodamine B assay; settings: read-out: Activity
[22] = system: SK-MEL-5; assay: Growth inhibition of human SK-MEL-5 cells by sulforhodamine B assay
[23] = Growth inhibition of human Hs 578T cells assessed as cell growth at 10^-8 M by sulforhodamine B assay; settings: read-out: Activity
[24] = system: OVCAR-5; assay: Growth inhibition of human OVCAR5 cells assessed as cell growth at 10^-4 M by sulforhodamine B assay; settings: read-out: Activity
[25] = system: SW-620; assay: Growth inhibition of human SW620 cells assessed as cell growth at 10^-6 M by sulforhodamine B assay; settings: read-out: Activity
[26] = system: SR; assay: Growth inhibition of human SR cells by sulforhodamine B assay
[27] = system: SF-295; assay: Growth inhibition of human SF295 cells assessed as cell growth at 10^-4 M by sulforhodamine B assay; settings: read-out: Activity
[28] = system: SW-620; assay: Growth inhibition of human SW620 cells assessed as cell growth at 10^-7 M by sulforhodamine B assay; settings: read-out: Activity
[29] = system: KM12; assay: Growth inhibition of human KM12 cells assessed as cell growth at 10^-7 M by sulforhodamine B assay; settings: read-out: Activity
[30] = system: U-251; assay: Growth inhibition of human U251 cells assessed as cell growth at 10^-4 M by sulforhodamine B assay; settings: read-out: Activity
[31] = system: OVCAR-3; assay: Growth inhibition of human OVCAR3 cells assessed as cell growth at 10^-6 M by sulforhodamine B assay; settings: read-out: Activity
[32] = system: SNB-75; assay: Growth inhibition of human SNB75 cells assessed as cell growth at 10^-4 M by sulforhodamine B assay; settings: read-out: Activity
[33] = system: SK-OV-3; assay: Growth inhibition of human SKOV3 cells by sulforhodamine B assay
[34] = system: RXF 393; assay: Growth inhibition of human RXF393 cells assessed as cell growth at 10^-7 M by sulforhodamine B assay; settings: read-out: Activity
[35] = system: SNB-19; assay: Growth inhibition of human SNB19 cells assessed as cell growth at 10^-4 M by sulforhodamine B assay; settings: read-out: Activity
[36] = Growth inhibition of human HCC2998 cells assessed as cell growth at 10^-7 M by sulforhodamine B assay; settings: HCC 2998, read-out: Activity
[37] = system: MDA-MB-435; assay: Growth inhibition of human MDA-MB-435 cells by sulforhodamine B assay
[38] = system: OVCAR-8; assay: Growth inhibition of human OVCAR8 cells assessed as cell growth at 10^-6 M by sulforhodamine B assay; settings: read-out: Activity
[39] = system: MDA-MB-468; assay: Growth inhibition of human MDA-MB-468 cells assessed as cell growth at 10^-7 M by sulforhodamine B assay; settings: read-out: Activity
[40] = system: SK-OV-3; assay: Growth inhibition of human SKOV3 cells assessed as cell growth at 10^-7 M by sulforhodamine B assay; settings: read-out: Activity
[41] = system: SK-MEL-28; assay: Growth inhibition of human SK-MEL-28 cells assessed as cell growth at 10^-4 M by sulforhodamine B assay; settings: read-out: Activity
[42] = read-out: LC50 (the source's name)
[43] = read-out: pLC50 (the source's name) (converted)

Structure (SMILES): CC(C)=CC(=O)O[C@@H]1CC(C)(C)C[C@H]2C3=CC[C@@H]4[C@@]5(C)CC[C@H](O)C(C)(C)[C@@H]5CC[C@@]4(C)[C@]3(C)CC[C@@]12C(=O)O [Reduced Lantadene B]
- growth at 0.1 µM [1]: 98%
- GI50 ([2]; read-out: GI50): 4.93 µM
- CC50 [2, 42]: 74.4 µM
- TGI ([2]; read-out: TGI): 22.5 µM
- GI50 ([2]; read-out: pGI50 (converted)): 4.9 µM
- CC50 [2, 43]: 74.1 µM
- TGI ([2]; read-out: pTGI (converted)): 22.4 µM
- GI50 ([3]; read-out: GI50): 8.94 µM
- CC50 [3, 42]: > 100 µM
- TGI ([3]; read-out: TGI): 36.2 µM
- GI50 ([3]; read-out: pGI50 (converted)): 8.91 µM
- CC50 [3, 43]: > 100 µM
- TGI ([3]; read-out: pTGI (converted)): 36.3 µM
- growth at 1 µM [4]: 64%
- growth at 0.1 µM [5]: 92%
- growth at 100 µM [6]: -56%
- growth at 100 µM [7]: -62%
- growth at 0.1 µM [8]: 97%
- growth at 0.1 µM [9]: 89%
- growth at 0.01 µM [10]: 96%
- growth at 1 µM [11]: 104%
- growth at 0.1 µM [12]: 105%
- growth at 1 µM [13]: 90%
- GI50 ([14]; read-out: GI50): 13.7 µM
- CC50 [14, 42]: > 100 µM
- TGI ([14]; read-out: TGI): 38.6 µM
- GI50 ([14]; read-out: pGI50 (converted)): 13.8 µM
- CC50 [14, 43]: > 100 µM
- TGI ([14]; read-out: pTGI (converted)): 38.9 µM
- growth at 0.1 µM [15]: 87%
- growth at 1 µM [16]: 82%
- growth at 1 µM [17]: 102%
- growth at 1 µM [18]: 78%
- growth at 0.01 µM [19]: 103%
- growth at 0.01 µM [20]: 93%
- growth at 100 µM [21]: -43%
- GI50 ([22]; read-out: GI50): 2.86 µM
- CC50 [22, 42]: 66.7 µM
- TGI ([22]; read-out: TGI): 16.5 µM
- GI50 ([22]; read-out: pGI50 (converted)): 2.88 µM
- CC50 [22, 43]: 66.1 µM
- TGI ([22]; read-out: pTGI (converted)): 16.6 µM
- growth at 0.01 µM [23]: 96%
- growth at 100 µM [24]: -51%
- growth at 1 µM [25]: 87%
- GI50 ([26]; read-out: GI50): 5.04 µM
- CC50 [26, 42]: > 100 µM
- TGI ([26]; read-out: TGI): 35.4 µM
- GI50 ([26]; read-out: pGI50 (converted)): 5.01 µM
- CC50 [26, 43]: > 100 µM
- TGI ([26]; read-out: pTGI (converted)): 35.5 µM
- growth at 100 µM [27]: -71%
- growth at 0.1 µM [28]: 95%
- growth at 0.1 µM [29]: 79%
- growth at 100 µM [30]: -61%
- growth at 1 µM [31]: 86%
- growth at 100 µM [32]: -38%
- GI50 ([33]; read-out: GI50): 12.8 µM
- CC50 [33, 42]: 80.2 µM
- TGI ([33]; read-out: TGI): 32 µM
- GI50 ([33]; read-out: pGI50 (converted)): 12.9 µM
- CC50 [33, 43]: 79.4 µM
- TGI ([33]; read-out: pTGI (converted)): 32.4 µM
- growth at 0.1 µM [34]: 95%
- growth at 100 µM [35]: -62%
- growth at 0.1 µM [36]: 99%
- GI50 ([37]; read-out: GI50): 11.9 µM
- CC50 [37, 42]: > 100 µM
- TGI ([37]; read-out: TGI): 48.4 µM
- GI50 ([37]; read-out: pGI50 (converted)): 12 µM
- CC50 [37, 43]: > 100 µM
- TGI ([37]; read-out: pTGI (converted)): 47.9 µM
- growth at 1 µM [38]: 82%
- growth at 0.1 µM [39]: 98%
- growth at 0.1 µM [40]: 103%
- growth at 100 µM [41]: -64%
